Test results reported in PubChem BioAssay (NCI).
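Following 48 hours of exposure in 96-well plates, responses at five concentrations were used to interpolate endpoints linearly. TGI marks complete inhibition of growth.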

Legend:
Assay in all cases: NCI-60 cell line screen, 48 h
COLO 205 colon = test system: COLO 205 colon
MDA-MB-435 = test system: MDA-MB-435
CCRF-CEM leukemia = test system: CCRF-CEM leukemia
NCI-H226 lung = test system: NCI-H226 lung
NCI-H522 lung = test system: NCI-H522 lung
MOLT-4 leukemia = test system: MOLT-4 leukemia
ACHN renal = test system: ACHN renal
SK-MEL-28 melanoma = test system: SK-MEL-28 melanoma
SN12C renal = test system: SN12C renal
PC-3 prostate = test system: PC-3 prostate
MCF7 breast = test system: MCF7 breast
SNB-19 CNS = test system: SNB-19 CNS
HT29 colon = test system: HT29 colon
HCC-2998 colon = test system: HCC-2998 colon
HOP-62 NSCLC = test system: HOP-62 NSCLC
HOP-92 NSCLC = test system: HOP-92 NSCLC
NCI/ADR-RES ovarian = test system: NCI/ADR-RES ovarian
IGROV1 ovarian = test system: IGROV1 ovarian
SNB-75 CNS = test system: SNB-75 CNS
SR leukemia = test system: SR leukemia
OVCAR-3 ovarian = test system: OVCAR-3 ovarian
SF-539 CNS = test system: SF-539 CNS
NCI-H460 lung = test system: NCI-H460 lung
CAKI-1 renal = test system: CAKI-1 renal
HL-60(TB) leukemia = test system: HL-60(TB) leukemia
UACC-257 melanoma = test system: UACC-257 melanoma
K-562 leukemia = test system: K-562 leukemia
RXF 393 renal = test system: RXF 393 renal
UACC-62 melanoma = test system: UACC-62 melanoma
MDA-MB-231 breast = test system: MDA-MB-231 breast
M14 melanoma = test system: M14 melanoma
U251 CNS = test system: U251 CNS
A498 renal = test system: A498 renal
LOX IMVI melanoma = test system: LOX IMVI melanoma
SK-MEL-5 melanoma = test system: SK-MEL-5 melanoma
A549 NSCLC = test system: A549 NSCLC
DU-145 prostate = test system: DU-145 prostate
OVCAR-5 ovarian = test system: OVCAR-5 ovarian
KM12 colon = test system: KM12 colon
UO-31 renal = test system: UO-31 renal
MALME-3M melanoma = test system: MALME-3M melanoma
OVCAR-4 ovarian = test system: OVCAR-4 ovarian
SF-295 CNS = test system: SF-295 CNS
OVCAR-8 ovarian = test system: OVCAR-8 ovarian
RPMI-8226 leukemia = test system: RPMI-8226 leukemia
SW-620 colon = test system: SW-620 colon
MDA-N = test system: MDA-N
NCI-H23 lung = test system: NCI-H23 lung
HCT-116 colon = test system: HCT-116 colon
786-0 renal = test system: 786-0 renal
BT-549 breast = test system: BT-549 breast
SK-MEL-2 melanoma = test system: SK-MEL-2 melanoma
EKVX NSCLC = test system: EKVX NSCLC
T-47D breast = test system: T-47D breast
SK-OV-3 ovarian = test system: SK-OV-3 ovarian
TK-10 renal = test system: TK-10 renal
SF-268 CNS = test system: SF-268 CNS
HCT-15 colon = test system: HCT-15 colon
HS 578T breast = test system: HS 578T breast

In the case of `COc1nc2c(c(=O)[nH]1)N=C(c1ccc([N+](=O)[O-])cc1)CC(c1ccccc1)N2` (stereo not drawn), the TGI (COLO 205 colon) is reported as > 100 µM, the TGI (MDA-MB-435) is reported as > 100 µM and the TGI (CCRF-CEM leukemia) is reported as > 100 µM. The TGI (NCI-H226 lung) was > 100 µM, the TGI (NCI-H522 lung) was > 100 µM and the TGI (MOLT-4 leukemia) was > 100 µM. For the same molecule, the TGI (ACHN renal) was > 100 µM, the TGI (SK-MEL-28 melanoma) was > 100 µM and the TGI (SN12C renal) was > 100 µM. For the same molecule, the TGI (PC-3 prostate) was > 100 µM, the TGI (MCF7 breast) was > 100 µM and the TGI (SNB-19 CNS) was > 100 µM. The TGI (HT29 colon) was > 100 µM, the TGI (HCC-2998 colon) was > 100 µM and the TGI (HOP-62 NSCLC) was > 100 µM. For the same molecule, the TGI (HOP-92 NSCLC) was > 100 µM, the TGI (NCI/ADR-RES ovarian) was > 100 µM and the TGI (IGROV1 ovarian) was > 100 µM. For the same molecule, the TGI (SNB-75 CNS) was > 100 µM, the TGI (SR leukemia) was > 100 µM and the TGI (OVCAR-3 ovarian) was > 100 µM. For the same molecule, the TGI (SF-539 CNS) was > 100 µM, the TGI (NCI-H460 lung) was > 100 µM and the TGI (CAKI-1 renal) was > 100 µM. The TGI (HL-60(TB) leukemia) was 46.6 µM, the TGI (UACC-257 melanoma) was > 100 µM and the TGI (K-562 leukemia) was > 100 µM. For the same molecule, the TGI (RXF 393 renal) was > 100 µM, the TGI (UACC-62 melanoma) was > 100 µM and the TGI (MDA-MB-231 breast) was > 100 µM. The TGI (M14 melanoma) was > 100 µM, the TGI (U251 CNS) was > 100 µM and the TGI (A498 renal) was > 100 µM. The TGI (LOX IMVI melanoma) was > 100 µM, the TGI (SK-MEL-5 melanoma) was > 100 µM and the TGI (A549 NSCLC) was > 100 µM. The TGI (DU-145 prostate) was > 100 µM, the TGI (OVCAR-5 ovarian) was > 100 µM and the TGI (KM12 colon) was > 100 µM. For the same molecule, the TGI (UO-31 renal) was > 100 µM, the TGI (MALME-3M melanoma) was > 100 µM and the TGI (OVCAR-4 ovarian) was > 100 µM. For the same molecule, the TGI (SF-295 CNS) was > 100 µM, the TGI (OVCAR-8 ovarian) was > 100 µM and the TGI (RPMI-8226 leukemia) was > 100 µM. For the same molecule, the TGI (SW-620 colon) was > 100 µM, the TGI (MDA-N) was > 100 µM and the TGI (NCI-H23 lung) was > 100 µM. For the same molecule, the TGI (HCT-116 colon) was > 100 µM, the TGI (786-0 renal) was > 100 µM and the TGI (BT-549 breast) was > 100 µM. For the same molecule, the TGI (SK-MEL-2 melanoma) was > 100 µM and the TGI (EKVX NSCLC) was > 100 µM.
In the case of `O=C(NNC(=O)c1cc2ccccc2[nH]1)c1cc2ccccc2[nH]1`, the TGI (COLO 205 colon) is reported as > 100 µM, the TGI (MDA-MB-435) is reported as > 100 µM and the TGI (CCRF-CEM leukemia) is reported as > 100 µM. The TGI (NCI-H226 lung) was > 100 µM, the TGI (NCI-H522 lung) was > 100 µM and the TGI (MOLT-4 leukemia) was > 100 µM. The TGI (SK-MEL-28 melanoma) was > 100 µM, the TGI (SN12C renal) was > 100 µM and the TGI (PC-3 prostate) was > 100 µM. The TGI (MCF7 breast) was > 100 µM, the TGI (SNB-19 CNS) was > 100 µM and the TGI (HT29 colon) was > 100 µM. The TGI (HOP-62 NSCLC) was > 100 µM, the TGI (T-47D breast) was > 100 µM and the TGI (SK-OV-3 ovarian) was > 100 µM. The TGI (NCI/ADR-RES ovarian) was > 100 µM, the TGI (IGROV1 ovarian) was > 100 µM and the TGI (TK-10 renal) was > 100 µM. For the same molecule, the TGI (SNB-75 CNS) was > 100 µM, the TGI (SR leukemia) was > 100 µM and the TGI (OVCAR-3 ovarian) was > 100 µM. The TGI (SF-539 CNS) was > 100 µM, the TGI (NCI-H460 lung) was > 100 µM and the TGI (CAKI-1 renal) was > 100 µM. The TGI (HL-60(TB) leukemia) was > 100 µM, the TGI (UACC-257 melanoma) was > 100 µM and the TGI (K-562 leukemia) was > 100 µM. For the same molecule, the TGI (RXF 393 renal) was > 100 µM, the TGI (UACC-62 melanoma) was > 100 µM and the TGI (MDA-MB-231 breast) was > 100 µM. For the same molecule, the TGI (M14 melanoma) was > 100 µM, the TGI (U251 CNS) was > 100 µM and the TGI (A498 renal) was > 100 µM. The TGI (SF-268 CNS) was > 100 µM, the TGI (LOX IMVI melanoma) was > 100 µM and the TGI (SK-MEL-5 melanoma) was > 100 µM. The TGI (A549 NSCLC) was > 100 µM, the TGI (DU-145 prostate) was > 100 µM and the TGI (OVCAR-5 ovarian) was > 100 µM. For the same molecule, the TGI (KM12 colon) was > 100 µM, the TGI (UO-31 renal) was > 100 µM and the TGI (MALME-3M melanoma) was > 100 µM. For the same molecule, the TGI (OVCAR-4 ovarian) was > 100 µM, the TGI (HCT-15 colon) was > 100 µM and the TGI (SF-295 CNS) was > 100 µM. The TGI (OVCAR-8 ovarian) was > 100 µM, the TGI (RPMI-8226 leukemia) was > 100 µM and the TGI (HS 578T breast) was > 100 µM. The TGI (SW-620 colon) was > 100 µM, the TGI (MDA-N) was > 100 µM and the TGI (HCT-116 colon) was > 100 µM. The TGI (786-0 renal) was > 100 µM, the TGI (BT-549 breast) was > 100 µM and the TGI (SK-MEL-2 melanoma) was > 100 µM. The TGI (EKVX NSCLC) was > 100 µM.
